Laboratory results: patent US20250154105A1, “POLYCYCLIC COMPOUND AND USE THEREOF” (TYK MEDICINES, INC., priority 2021, published 2025)

How the values were obtained:
YAP-TEAD = YAP-TEAD inhibitor activity by Nano luciferase method (8xGTiiC-nLuc reporter in 293T cells); type: cell-based; conditions: Homo sapiens, HEK-293T, 48 hours incubation, read-out: Nano-luciferase detection (IC50)
Method in brief: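 293T cells transiently transfected with pGL3B-8xGTiiC-nLuc-CMV-fLuc, seeded 2000 cells/well, then treated 48 h at 37 °C with compounds in 1:3.16 dilution series (top 10,000 nM). Nano luciferase signal read after cell lysis; IC50 from percent of 0 nM control.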

[1] = test system: human pleural mesothelioma cells NCI-H226; assay: Cell anti-proliferation experiment (CCK8), NCI-H226; type: cell-based
Method in brief: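 Viability was measured by CCK-8 (3 h, A450) after 3-day treatment with 0.15–333.33 nM compound in 0.1% DMSO medium. Curve-fitted IC50 was based on viability normalised to no-drug and cell-free controls.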

Structure (SMILES)	IC50 (YAP-TEAD) [nM]	IC50 [1] [nM]
Cc1cccc2c1c(=O)n(-c1ccc(C(F)(F)F)cc1)c1ccc(C(=O)N[C@@H](C)c3ccccn3)cc21 [Example T-257]	≤ 1000	≤ 1000
C[C@H](NC(=O)c1ccc2c(c1)c1c(F)cccc1c(=O)n2-c1ccc(C(F)(F)F)cc1)c1ccccn1 [Example T-258]	≤ 1000	≤ 1000
C[C@H](NC(=O)c1ccc2c(c1)c1cc(F)ccc1c(=O)n2-c1ccc(C(F)(F)F)cc1)c1ccccn1 [Example T-259]	≤ 1000	≤ 1000
C[C@H](NC(=O)c1ccc2c(c1)c1ccc(F)cc1c(=O)n2-c1ccc(C(F)(F)F)cc1)c1ccccn1 [Example T-260]	1000 to 5000	≤ 1000
C[C@H](NC(=O)c1ccc2c(c1)c1cccc(F)c1c(=O)n2-c1ccc(C(F)(F)F)cc1)c1ccccn1 [Example T-261]	1000 to 5000	≤ 1000
C[C@H](NC(=O)c1ccc2c(c1)c1c(c(=O)n2-c2ccc(C(F)(F)F)nc2)CCC1)c1ccccn1 [Example T-262]	≤ 1000	≤ 1000
C[C@H](NC(=O)c1ccc2c(c1)c1c(c(=O)n2-c2ccc(C(F)(F)F)nc2)CCCC1)c1ccccn1 [Example T-263]	≤ 1000	≤ 1000
C[C@H](NC(=O)c1ccc2c(c1)c1cscc1c(=O)n2-c1ccc(C(F)(F)F)nc1)c1ccccn1 [Example T-264]	≤ 1000	≤ 1000
CNS(=O)(=O)c1ccc2c(c1)c1cscc1c(=O)n2-c1ccc(C(F)(F)F)cc1 [Example T-265]	≤ 1000	≤ 1000
C[C@H](NC(=O)c1ccc2c(c1)c1c(c(=O)n2C2CCC(F)(F)CC2)CCC1)c1ccccn1 [Example T-266]	≤ 1000	≤ 1000
C[C@H](NC(=O)c1ccc2c(c1)c1c(c(=O)n2C2CCC(F)(F)CC2)CCCC1)c1ccccn1 [Example T-267]	≤ 1000	≤ 1000
C[C@H](NC(=O)c1ccc2c(c1)c1ccccc1c(=O)n2C1CCC(F)(F)CC1)c1ccccn1 [Example T-268]	≤ 1000	≤ 1000

The remaining lines, values ahead:

IC50 (YAP-TEAD) [nM]	IC50 [1] [nM]	Structure (SMILES)
≤ 1000	≤ 1000	C[C@H](NC(=O)c1ccc2c(c1)-c1cscc1CN2C1CCC(C(F)(F)F)CC1)c1ccccn1 (stereo partly drawn) [Example T-269]
≤ 1000	≤ 1000	C[C@H](NC(=O)c1ccc2c(c1)c1nn(C)cc1c(=O)n2Cc1ccc(C(F)(F)F)cc1)c1ccccn1 [Example T-270]
≤ 1000	≤ 1000	C[C@H](NC(=O)c1ccc2c(c1)c1nn(C)cc1c(=O)n2Cc1ccccc1)c1ccccn1 [Example T-271]
≤ 1000	≤ 1000	C[C@H](NC(=O)c1ccc2c(c1)c1cscc1c(=O)n2-c1ccc(S(F)(F)(F)(F)F)cc1)c1ccccn1 [Example T-274]
≤ 1000	≤ 1000	Cc1c(Br)c(=O)n(-c2ccc(C(F)(F)F)cc2)c2ccc(C(=O)N[C@@H](C)c3ccccn3)cc12 [Example T-278]
1000 to 5000	≤ 1000	Cc1c(-c2ccccc2)c(=O)n(-c2ccc(C(F)(F)F)cc2)c2ccc(C(=O)N[C@@H](C)c3ccccn3)cc12 [Example T-279]
≤ 1000	≤ 1000	C=CC(=O)Nc1ccc2c(c1)c(C)cc(=O)n2-c1ccc(C(F)(F)F)cc1 [Example T-280]
≤ 1000	≤ 1000	CC1c2ccccc2-c2cc(C(=O)N[C@@H](C)c3ccccn3)ccc2N1c1ccc(C(F)(F)F)cc1 (stereo partly drawn) [Example T-281]
1000 to 5000	1000 to 5000	C[C@H](NC(=O)c1ccc2c(c1)C1CCCC1CN2c1ccc(C(F)(F)F)cc1)c1ccccc1 (stereo partly drawn) [Example T-283]
1000 to 5000	1000 to 5000	C=CC(=O)N[C@@H](C)c1c(C)c2ccccc2n(-c2ccc(C(F)(F)F)cc2)c1=O [Example T-284]
1000 to 5000	1000 to 5000	C=CC(=O)NC(C)c1c(C)c2ccccc2n(-c2ccc(C(F)(F)F)cc2)c1=O (stereo not drawn) [Example T-285]
≤ 1000	≤ 1000	C[C@H](NC(=O)c1ccc2c(c1)c1cocc1c(=O)n2-c1ccc(C(F)(F)F)cc1)c1ccccn1 [Example T-286]
